Laboratory results published in patent US20060128736A1, “Camptothecin-carboxylate formulations” (priority 2002, published 2006).

What was measured:
[1] = tested on: A-375 melanoma; assay: Therapeutic efficacy of LipoCam in A-375 melanoma of nude mice (FIG. 12); type: in vivo, NMRI-nude mice; conditions: iv three times a week for three weeks at equitoxic doses, start at about 100 mm^3
Experimental: (§1) NMRI-nude mice were purchased from Elevage Janvier and housed in isolated ventilated cages under save environmental conditions (SPF facility, 22° C., 30-70% humidity, 12 h light/dark cycle) with food and water ad libitum. Experimental design was reviewed and approved by local government.
(§2) Tumor cells (A-375 human melanoma cell line, ATCC Nr.: CRL-1619) were grown as described in the data sheet supplied by ATCC. Tumor cells (5×10^6 in PBS) were inoculated s.c. in the right dorsal flank of mice in a volume of 50 μl on day 0.
Mice were assigned to the experimental groups (8 animals per cage), housed and handled (including monitoring of the body weight gain) at least five days before tumor inoculation (=day −6 to 0). […] Equitoxic doses of the compounds were determined in separate experiments, where toxicity was evaluated based on haematological parameters, body weight and animal clinical observations (see Tab. 3). […] Animals were clinically monitored during the whole experiment, monitoring of tumor size was performed three times a week. The tumor dimensions were measured by caliper and the tumor size was calculated according to the following formula: V=πL W^2/6 (L=greatest length, W=width of perpendicular axis). The body weight of individual animals was monitored at least twice during handling period, after tumor inoculation and after start of treatment. […]

[2] = Fluorescence anisotropy of CPT in lipid suspensions; type: physicochemical; conditions: 10 mM Tris-buffer pH 7.5, 10% trehalose
Source text: These finding are corroborated by fluorescence anisotropy measurements of the CPT. In this experiment, an increase of the fluorescence anisotropy is expected if the fluorophore is inserted into a liposome and thus its mobility is decreased. […] DOTAP and DOPC both comprise unsaturated fatty acid chains, but DOTAP is positively charged while DOPC is neutral.
For efficient binding, in addition to charge, the phase state of the fatty acid chains is important. […] DOTAP has its main phase transition (Tm) near 37° C. […] Below that temperature the fatty acid chains are in the gel phase (a crystalline like state) and above they are in the liquid crystalline (fluid-like) state.
FIG. 9: Fluorescence anisotropy measurements of CPT in lipid suspensions from DOTAP and DOPC and as prepared by different methods. […]
FIG. 10: Comparison of fluorescence anisotropy measurements with DOTAP and DMTAP Measurements with CPT and with 10-OH-CPT are shown. […]
In order to get further information on the CPT-lipid interaction form an independent method, fluorescence anisotropy measurements were performed. […] The fluorescence anisotropy was taken as a measure for the binding strength of CPT to the liposome. […]
Fluorescence anisotropy measurements from liposomes with two different cationic lipids, DOTAP and DMTAP, and two different CPT drugs (CPT and 10-OH-CPT) are compared. […]

[3] = tested on: A-375 melanoma; assay: Therapeutic efficacy of LipoCam IV and VI in A-375 melanoma of nude mice (FIG. 13); type: in vivo, NMRI-nude mice; conditions: 1 and 2 mg/kg iv three times a week for three weeks
Experimental: as §1, §2
Mice were assigned to the experimental groups (8 animals per cage), housed and handled (including monitoring of the body weight gain) at least five days before tumor inoculation (=day −6 to 0). […] Toxicity was evaluated based on hematological parameters, body weight and animal clinical observations. […]
Animals were clinically monitored during the whole experiment, monitoring of tumor size was performed three times a week. The tumor dimensions were measured by caliper and the tumor size was calculated according to the following formula: V=πL W^2/6 (L=greatest length, W=width of perpendicular axis). The body weight of individual animals was monitored at least twice during handling period, after tumor inoculation and after start of treatment. […] The number of red and white blood cells and platelets were determined using an automated cell counter (Abbott Cell Dyn 3500).

| SMILES | Anti-tumor effect (tumor volume) [1] | Fluorescence anisotropy (measure of binding strength of CPT to the liposome) [2] | Order of antitumor efficacy [3] |
| --- | --- | --- | --- |
| CC[C@@](O)(C(=O)[O-])c1cc2n(c(=O)c1CO)Cc1cc3ccccc3nc1-2.[Na+] [CPT-Na-Carboxylate] | only a retardation | – | – |
| CCC(O)(C(=O)O)c1cc2n(c(=O)c1CO)Cc1cc3ccccc3nc1-2 (stereo not shown) [CPT-carboxylate] | – | zero | LipoCam IV (2 mg/kg)>LipoCam VI (1 mg/kg)>CPT-carboxylate (2 mg/kg)>CPT-carboxylate (1 mg/kg) |
| CC[C@@]1(O)C(=O)OCc2c1cc1n(c2=O)Cc2cc3cc(O)ccc3nc2-1 [Formulation 10-OH-CPT, 10-Hydroxy-camptothecin] | – | higher binding efficacy | – |
